Test results from patent US20240083857A1, “2-Methyl-Quinazolines” (Bayer Pharma Aktiengesellschaft, priority 2017, published 2024).

Legend:
[1] = biological target: K-Ras^G12C : hSOS1 interaction (Homo sapiens, UniProt Q07889); experiment: Biochemical assay 1: K-Ras^G12C interaction assay with hSOS1 (HTRF); assay type: binding; conditions: read-out: Assay 1 (KRAS-SOS Interaction) activity expressed as IC50
[2] = biological target: human SOS1 (loading of human K-Ras^G12C-GDP with fluorescent GTP-analog) (Homo sapiens, UniProt Q07889); experiment: Biochemical assay 3: K-Ras^G12C activation assay by hSOS1 (HTRF); conditions: no GTP; for IC50: read-out: Assay 3 (KRAS-Activation by SOS no GTP) activity expressed as IC50

| SMILES | IC50 [1] [nM] | IC50 [2] [nM] | inhibition at 20 µM ([2]; read-out: Assay 3 (KRAS-Activation by SOS no GTP) activity expressed as % inhibition at 20 μM, at 20 μM) [%] |
| --- | --- | --- | --- |
| COc1cc2nc(C)nc(NC(C)c3ccc(-c4ccccc4CN4CC(F)(F)C4)s3)c2cc1OC (stereo not shown) [Example 320, N-[1-(5-{2-[(3,3-difluoroazetidin-1-yl)methyl]phenyl}thiophen-2-yl)ethyl]-6,7-dimethoxy-2-methylquinazolin-4-amine] | 2260 | 3490 | – |
| COc1cc2nc(C)nc(NC(C)c3ccc(-c4ccccc4CN4CC(O)C4)s3)c2cc1OC (stereo not shown) [Example 312, 1-[2-(5-{1-[(6,7-dimethoxy-2-methylquinazolin-4-yl)amino]ethyl}thiophen-2-yl)benzyl]azetidin-3-ol] | 68.2 | 73.2 | – |
| COc1cc2nc(C)nc(NC(C)c3cc4ccccc4o3)c2cc1OC (stereo not shown) [Example 20, N-[1-(1-benzofuran-2-yl)ethyl]-6,7-dimethoxy-2-methylquinazolin-4-amine] | 8420 | – | 41 |
| COc1cc2nc(C)nc(NC(C)c3cc(-c4ccccc4CN)cs3)c2cc1OC (stereo not shown) [Example 270, N-[1-{4-[2-(aminomethyl)phenyl]thiophen-2-yl}ethyl]-6,7-dimethoxy-2-methylquinazolin-4-amine] | 91.4 | 98 | – |
| COc1cc2nc(C)nc(NC(C)c3ccc(-c4ccccc4CN4CC5(CNC(=O)N5)C4)s3)c2cc1OC (stereo not shown) [Example 313, 2-[2-(5-{1-[(6,7-dimethoxy-2-methylquinazolin-4-yl)amino]ethyl}thiophen-2-yl)benzyl]-2,5,7-triazaspiro[3.4]octan-6-one] | 167 | 150 | – |
| COc1cc2nc(C)nc(NC(C)c3cc(-c4ccc(F)cc4CN)cs3)c2cc1OC (stereo not shown) [Example 269, N-[1-{4-[2-(aminomethyl)-4-fluorophenyl]thiophen-2-yl}ethyl]-6,7-dimethoxy-2-methylquinazolin-4-amine] | 162 | 135 | – |
| COc1cc2nc(C)nc(NC(C)c3ccc(-c4ccc(F)cc4CNC(=O)CNc4ccccc4)s3)c2cc1OC (stereo not shown) [Example 299, N-[2-(5-{1-[(6,7-dimethoxy-2-methylquinazolin-4-yl)amino]ethyl}thiophen-2-yl)-5-fluorobenzyl]-N^2-phenylglycinamide] | 948 | 1880 | – |
| COc1cc2nc(C)nc(NC(C)c3ccc(-c4cnc5n4CCC5)s3)c2cc1OC (single isomer, unassigned; enantiomer 2) [Example 329, N-{1-[5-(6,7-dihydro-5H-pyrrolo[1,2-a]imidazol-3-yl)thiophen-2-yl]ethyl}-6,7-dimethoxy-2-methylquinazolin-4-amine, Enantiomer 2] | 2410 | 10600 | – |
| COc1cc2nc(C)nc(NC(C)c3ccc(-c4ccc(CN)cc4)s3)c2cc1OC (stereo not shown) [Example 266, N-[1-{5-[4-(aminomethyl)phenyl]thiophen-2-yl}ethyl]-6,7-dimethoxy-2-methylquinazolin-4-amine] | 3610 | 3740 | – |
| COc1cc2nc(C)nc(NC(C)c3ccc(-c4ccc(CN)o4)s3)c2cc1OC (stereo not shown) [Example 275, N-[1-{5-[5-(aminomethyl)furan-2-yl]thiophen-2-yl}ethyl]-6,7-dimethoxy-2-methylquinazolin-4-amine] | 2800 | 6370 | – |
| COc1cc2nc(C)nc(NC(C)c3cccc4c3cnn4C)c2cc1OC (stereo not shown) [Example 17, 6,7-dimethoxy-2-methyl-N-[1-(1-methyl-1H-indazol-4-yl)ethyl]quinazolin-4-amine] | 270 | 712 | – |
| COc1cc2nc(C)nc(NC(C)c3cccc4sc(C)cc34)c2cc1OC (stereo not shown) [Example 330, 6,7-dimethoxy-2-methyl-N-[1-(2-methyl-1-benzothiophen-4-yl)ethyl]quinazolin-4-amine] | 227 | 547 | – |
| COc1cc2nc(C)nc(NC(C)c3ccc(-c4ccccc4CN[C@H]4CCN(C)C4=O)s3)c2cc1OC (stereo partly drawn) [Example 309, (3S)-{[2-(5-{1-[(6,7-dimethoxy-2-methylquinazolin-4-yl)amino]ethyl}thiophen-2-yl)benzyl]amino}-1-methylpyrrolidin-2-one] | 1320 | 880 | – |
| COc1cc2nc(C)nc(NC(C)c3ccc(-c4ccccc4CNCC(=O)N4CCOCC4)s3)c2cc1OC (stereo not shown) [Example 285, 2-{[2-(5-{1-[(6,7-dimethoxy-2-methylquinazolin-4-yl)amino]ethyl}thiophen-2-yl)benzyl]amino}-1-(morpholin-4-yl)ethanone] | 203 | 161 | – |
| CNCc1ccccc1-c1cc(C(C)Nc2nc(C)nc3cc(OC)c(OC)cc23)cs1 (stereo not shown) [Example 263, 6,7-dimethoxy-2-methyl-N-[1-(5-{2-[(methylamino)methyl]phenyl}thiophen-3-yl)ethyl]quinazolin-4-amine] | 237 | 324 | – |
| COc1cc2nc(C)nc(NC(C)c3cccc(OC)c3OC)c2cc1OC (stereo not shown) [Example 21, N-[1-(2,3-dimethoxyphenyl)ethyl]-6,7-dimethoxy-2-methylquinazolin-4-amine] | 3160 | 11100 | – |

| SMILES | IC50 [1] [nM] | IC50 [2] [nM] | inhibition at 20 µM ([2]; read-out: Assay 3 (KRAS-Activation by SOS no GTP) activity expressed as % inhibition at 20 μM, at 20 μM) [%] |
| --- | --- | --- | --- |
| COc1cc2nc(C)nc(NC(C)c3nccc4sccc34)c2cc1OC (stereo not shown) [Example 333, 6,7-dimethoxy-2-methyl-N-[1-(thieno[3,2-c]pyridin-4-yl)ethyl]quinazolin-4-amine] | 13000 | 14800 | – |
| COc1cc2nc(C)nc(NC(C)c3ccc(-c4ccc(F)cc4CNC(=O)[C@H]4CCCN4)s3)c2cc1OC (stereo in doubt) [Example 316, N-[2-(5-{1-[(6,7-dimethoxy-2-methylquinazolin-4-yl)amino]ethyl}thiophen-2-yl)-5-fluorobenzyl]-prolinamide] | 271 | 308 | – |
| COc1cc2nc(C)nc(NC(C)c3ccc(-c4ccccc4CN(C)CCO)s3)c2cc1OC (stereo not shown) [Example 298, 2-{[2-(5-{1-[(6,7-dimethoxy-2-methylquinazolin-4-yl)amino]ethyl}thiophen-2-yl)benzyl](methyl)amino}ethanol] | 47.2 | 58.8 | – |
| COc1cc2nc(C)nc(NC(C)c3ccc(-c4ccc(F)cc4CNC(=O)[C@@H]4CCCN4)s3)c2cc1OC (stereo partly drawn) [Example 314, N-[2-(5-{1-[(6,7-dimethoxy-2-methylquinazolin-4-yl)amino]ethyl}thiophen-2-yl)-5-fluorobenzyl]-L-prolinamide] | 104 | 90.1 | – |
| COc1cc2nc(C)nc(NC(C)c3ccc(-c4ccccc4CN4CCCC(C(N)=O)C4)s3)c2cc1OC (stereo not shown) [Example 290, 1-[2-(5-{1-[(6,7-dimethoxy-2-methylquinazolin-4-yl)amino]ethyl}thiophen-2-yl)benzyl]piperidine-3-carboxamide] | 176 | 159 | – |
| COc1cc2nc(C)nc(NC(C)c3ccc(-c4ccccc4CNCCO)s3)c2cc1OC (stereo not shown) [Example 297, 2-{[2-(5-{1-[(6,7-dimethoxy-2-methylquinazolin-4-yl)amino]ethyl}thiophen-2-yl)benzyl]amino}ethanol] | 46 | 60.6 | – |
| COc1cc2nc(C)nc(NC(C)c3cc(-c4ccn(CCN5CCCC5)n4)cs3)c2cc1OC (stereo not shown) [Example 267, 6,7-dimethoxy-2-methyl-N-[1-(4-{1-[2-(pyrrolidin-1-yl)ethyl]-1H-pyrazol-3-yl}thiophen-2-yl)ethyl]quinazolin-4-amine] | 3390 | 1780 | – |
| COc1cc2nc(C)nc(NC(C)c3ccc(-c4ccccc4CN(C)CC(F)(F)F)s3)c2cc1OC (stereo not shown) [Example 321, 6,7-di methoxy-2-methyl-N-{1-[5-(2-{[methyl(2,2,2-trifluoroethyl)amino]methyl}phenyl)thiophen-2-yl]ethyl}quinazolin-4-amine] | 14800 | 12800 | – |
| COc1cc2nc(C)nc(N[C@H](C)c3cccc(-c4cn[nH]c4C)c3)c2cc1OC [Example 335, 6,7-dimethoxy-2-methyl-N-{(1R)-1-[3-(5-methyl-1H-pyrazol-4-yl)phenyl]ethyl}quinazolin-4-amine] | 145 | 564 | – |
| COc1cc2nc(C)nc(NC(C)c3ccc(-c4cscc4C#N)s3)c2cc1OC (stereo not shown) [Example 287, 5-{1-[(6,7-dimethoxy-2-methylquinazolin-4-yl)amino]ethyl}-2,3′-bithiophene-4′-carbonitrile] | 5880 | 5760 | – |
| COc1cc2nc(C)nc(NC(C)c3ccc(-c4ccc(F)cc4CNC(=O)c4cc[nH]n4)s3)c2cc1OC (stereo not shown) [Example 310, N-[2-(5-{1-[(6,7-dimethoxy-2-methylquinazolin-4-yl)amino]ethyl}thiophen-2-yl)-5-fluorobenzyl]-1H-pyrazole-3-carboxamide] | 5820 | 5760 | – |
| COc1cc2nc(C)nc(NC(C)c3ccnc4sccc34)c2cc1OC (stereo not shown) [Example 331, 6,7-dimethoxy-2-methyl-N-[1-(thieno[2,3-b]pyridin-4-yl)ethyl]quinazolin-4-amine] | 919 | 3170 | – |
| COc1cc2nc(C)nc(N[C@H](C)c3cccc(-c4cnc5n4CCC5)c3)c2cc1OC [Example 261, N-{(1R)-1-[3-(6,7-dihydro-5H-pyrrolo[1,2-a]imidazol-3-yl)phenyl]ethyl}-6,7-dimethoxy-2-methylquinazolin-4-amine] | 839 | 1100 | – |
| COc1cc2nc(C)nc(NC(C)c3csc(-c4ccccc4CN)c3)c2cc1OC (stereo not shown) [Example 259, N-[1-{5-[2-(aminomethyl)phenyl]thiophen-3-yl}ethyl]-6,7-dimethoxy-2-methylquinazolin-4-amine] | 402 | 650 | – |
| COc1cc2nc(C)nc(N[C@H](C)c3cccc(-c4cnn(C)c4)c3)c2cc1OC [Example 338, 6,7-dimethoxy-2-methyl-N-{(1R)-1-[3-(1-methyl-1H-pyrazol-4-yl)phenyl]ethyl}quinazolin-4-amine] | 325 | 1390 | – |
| COc1cc2nc(C)nc(NC(C)c3cc(-c4ccn(CCO)n4)cs3)c2cc1OC (stereo not shown) [Example 273, 2-[3-(5-{1-[(6,7-dimethoxy-2-methylquinazolin-4-yl)amino]ethyl}thiophen-3-yl)-1H-pyrazol-1-yl]ethanol] | 2320 | 3630 | – |
